Values of other authors in patent US20040197905A1, “Methods and devices for monitoring cellular metabolism in microfluidic cell-retaining chambers” (Thermogenic Imagining, priority 2003, published 2004).
Where two headings read alike, the source gives them in different places.

pKa (at 37° C.): 7.3-7.4
pKa (at room temperature): about 7.5
Substance: carboxy SNARF-1
